# Source: patent US20160304477A1 (LAguna Pharmaceuticals, Inc., priority 2013, published 2016)
# Where two headings read alike, the source gives them in different places.
# Tests used:
# [1] = Plasma concentrations of vanoxerine and its hydroxyl metabolites in patients after a 300 mg dose of vanoxerine (LC-MS/MS); type: in vivo, human; settings: 300 mg vanoxerine; for Concentrations (plasma), average: all 25 patients; for High concentration group average (plasma concentration): high concentration group (10 patients); for Low concentration group average (plasma concentration): low concentration group (15 patients)
# Experimental: Each patient gave blood samples before administration of their dose, and then again at nine further time points, 30 minutes after admiration, 1, 2, 3, 4, 6, 8, 12, and 24 hours post administration.
# Samples: A total of 270 human plasma samples were received (in duplicate). The samples were shipped frozen over dry ice. The samples were stored at −70° C. (nominal) until analysis.
# Frozen samples were thawed at room temperature. Samples, calibrators, QC samples, sample blanks (blank plasma) and reagent blanks (water) were processed at room temperature. To 200 μL aliquots of each sample, calibrator, and QC sample are added 20 μL of 500 ng/mL of internal standard solution. A sample blank (blank plasma) and reagent blank (water) were also prepared, but without addition of internal standard solution (20 μL of diluent was added instead). To each sample, 200 μL of 1% ammonium hydroxide solution were added and vortex mixed. 3.0 mL of methyl tert-butyl ether were added and then vortex mix for 30 seconds. The sample is then centrifuged for 5 minutes at 4000 rpm and then transferred for about 30 minutes at −70° C. (nominal). The upper (organic) layer was transferred into an evaporation tubes and then evaporated under N2 stream at ˜50° C. for about 20 min. Samples were then reconstituted in 1000 μL reconstitution solution (80:20:0.1 water: acetonitrile: formic acid). Samples were mixed, allow to stand for about 3 minutes and mixed again. 900 μL of the sample solution was transferred to a 1.5 mL microcentrifuge tube and centrifuged for 5 minutes at 14000 rpm at room temperature. 800 μL of the sample solution was transferred to a glass autosampler vial, and then transferred to the autosampler for analysis. Samples were separated using reversed-phase liquid chromatography with a C18 column.
# Detection was based on electro-spray interface in positive mode (ESI+) LC-MS/MS technique, using Micromass Quattro Premier XE MS/MS detector with MassLynx and QuanLynx software version 4.1. […] The MRM transition for all hydroxyl metabolites was m/z 467→203.
# [2] = healthy subjects, cited from earlier work
# [3] = 1 h post administration, 1.00 = below LLOQ
# [4] = 2 h post administration, 1.00 = below LLOQ
# [5] = 3 h post administration, 1.00 = below LLOQ
# [6] = 4 h post administration, 1.00 = below LLOQ
# [7] = 6 h post administration, 1.00 = below LLOQ
# [8] = 8 h post administration, 1.00 = below LLOQ
# [9] = 12 h post administration, 1.00 = below LLOQ
# [10] = 24 h post administration, 1.00 = below LLOQ
# [11] = .5 h post administration, 1.00 = below LLOQ
# [12] = time -15 (before administration), 1.00 = below LLOQ
"Concentrations (plasma), average [1, 3] [ng/mL]","Concentrations (plasma), average [1, 4] [ng/mL]","Concentrations (plasma), average [1, 5] [ng/mL]","Concentrations (plasma), average [1, 6] [ng/mL]","Concentrations (plasma), average [1, 7] [ng/mL]","Concentrations (plasma), average [1, 8] [ng/mL]","Concentrations (plasma), average [1, 9] [ng/mL]","Concentrations (plasma), average [1, 10] [ng/mL]","Concentrations (plasma), average [1, 11] [ng/mL]","Concentrations (plasma), average [1, 12] [ng/mL]","High concentration group average (plasma concentration) [1, 3] [ng/mL]","High concentration group average (plasma concentration) [1, 4] [ng/mL]","High concentration group average (plasma concentration) [1, 5] [ng/mL]","High concentration group average (plasma concentration) [1, 6] [ng/mL]","High concentration group average (plasma concentration) [1, 7] [ng/mL]","High concentration group average (plasma concentration) [1, 8] [ng/mL]","High concentration group average (plasma concentration) [1, 9] [ng/mL]",High concentration group average (plasma concentration) ([1]; 24 h post administration) [ng/mL],"High concentration group average (plasma concentration) [1, 11] [ng/mL]","High concentration group average (plasma concentration) [1, 12] [ng/mL]",Compound,other results
7.51,19.65,18.68,16.42,11.48,8.98,6.30,3.66,1.93,1.00,8.64,28.00,29.64,24.93,18.08,14.50,9.98,1.72,2.55,1.00,17-hydroxyl vanoxerine [M01],"Low concentration group average (plasma concentration) [1, 3]: 6.76 ng/mL; Low concentration group average (plasma concentration) [1, 4]: 14.09 ng/mL; Low concentration group average (plasma concentration) [1, 5]: 11.38 ng/mL; Low concentration group average (plasma concentration) [1, 6]: 10.34 ng/mL; Low concentration group average (plasma concentration) [1, 7]: 7.08 ng/mL; Low concentration group average (plasma concentration) [1, 8]: 5.30 ng/mL; Low concentration group average (plasma concentration) [1, 9]: 3.67 ng/mL; Low concentration group average (plasma concentration) [1, 10]: 2.66 ng/mL; Low concentration group average (plasma concentration) [1, 11]: 1.52 ng/mL; Low concentration group average (plasma concentration) [1, 12]: 1.00 ng/mL"
,,,,,,,,,,,,,,,,,,,,"Fc1ccc(C(OCCN2CCN(CCCc3ccccc3)CC2)c2ccc(F)cc2)cc1 [Vanoxerine, 1-[2-[bis(4-fluorophenyl)methoxy]ethyl]-4-(3-phenylpropyl)piperazine]","side-effects ([2]; daily repetitive dose of 50 mg): no side-effects should be expected; side-effects ([2]; higher doses of vanoxerine): some effects were seen with regard to concentration difficulties, increase systolic blood pressure, asthenia, and a feeling of drug influence"
1.02,1.02,1.01,1.01,1.00,1.00,1.00,1.00,1.00,1.00,1.00,1.05,1.03,1.02,1.00,1.00,1.00,0.00,1.00,1.00,16-hydroxyl vanoxerine [M02],"Low concentration group average (plasma concentration) [1, 3]: 1.03 ng/mL; Low concentration group average (plasma concentration) [1, 4]: 1.00 ng/mL; Low concentration group average (plasma concentration) [1, 5]: 1.00 ng/mL; Low concentration group average (plasma concentration) [1, 6]: 1.00 ng/mL; Low concentration group average (plasma concentration) [1, 7]: 1.00 ng/mL; Low concentration group average (plasma concentration) [1, 8]: 1.00 ng/mL; Low concentration group average (plasma concentration) [1, 9]: 1.00 ng/mL; Low concentration group average (plasma concentration) [1, 10]: 1.00 ng/mL; Low concentration group average (plasma concentration) [1, 11]: 1.00 ng/mL; Low concentration group average (plasma concentration) [1, 12]: 1.00 ng/mL"
